These results are taken from article PMC4571170 (ACS Central Science, 2015).

Series [1] has as its target T1, RNase A (Bos taurus, UniProt P61823).
T1 sequence (P61823 27-150): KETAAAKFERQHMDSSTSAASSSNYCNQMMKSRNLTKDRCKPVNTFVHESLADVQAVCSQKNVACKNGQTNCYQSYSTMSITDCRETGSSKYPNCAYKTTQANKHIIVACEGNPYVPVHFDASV
The experiment in a line: Glycan array screening for RNase A ligands. It counts as binding, cow. The settings on record: printed glycan array, Figure 1.

The test system of series [2] is human leukemia cells. To be noted: read-out: IC50 (cytotoxicity), ref [6],[15]; cited from earlier work.

By IC50 is commonly meant the midpoint of a concentration-inhibition curve.

In the case of `CC(=O)NC1C(OC2C(O)C(CO)OC(OC3C(CO)OC(OC4C(CO)OC(O)C(O)C4O)C(O)C3O)C2O)OC(CO)C(O)C1OC1OC(CO)C(O)C(O)C1O` (stereo not shown) [glycan 127, Galβ1–3GalNAcβ1–3Galα1–4Galβ1–4Glc], the “binding of RNase A to glycan in the array (in words)” value in series [1] is “little affinity”. Still for that read-out and setting: then “GalNAcβ1–3Galα1–4Galβ1–4GlcNAc [glycan 90]”, with “did bind”.

B1: DRRRD RNase 1: RI-evasive cytotoxic variant of RNase 1 (R39D/N67R/N88R/G89R/R91D) (protein, UniProt P07998 29-156, looked up, variant R39D N67R N88R G89R R91D)
Ribonuclease pancreatic: KESRAKKFQRQHMDSDSSPSSSSTYCNQMMRRRNMTQGDCKPVNTFVHEPLVDVQNVCFQEKVTCKRGQGNCYKSNSSMHITDCRLTRRSDYPNCAYRTSPKERHIIVACEGSPYVPVHFDASVEDST
For the molecule B1, the concentration for half-maximal inhibition (IC50) in series [2] was 10.8 µM.

B2: RNase A (G88R): RI-evasive cytotoxic G88R variant of RNase A (protein, UniProt P61823 27-150, looked up, variant G88R)
Ribonuclease pancreatic: KETAAAKFERQHMDSSTSAASSSNYCNQMMKSRNLTKDRCKPVNTFVHESLADVQAVCSQKNVACKNGQTNCYQSYSTMSITDCRETRSSKYPNCAYKTTQANKHIIVACEGNPYVPVHFDASV
For the molecule B2, in series [2], the IC50 is 6.2 µM.
